From paper PMC6934184, “Selective DNA-PKcs inhibition extends the therapeutic index of localized radiotherapy and chemotherapy” (The Journal of Clinical Investigation, 2019)

Target: T1, EPHA5 (Homo sapiens, UniProt P54756)
T1 construct: purchased Thermo Fisher Scientific (Life Technologies) SelectScreen
Assay: SelectScreen Z'LYTE
Assay type: biochemical
Outline: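 SelectScreen broad panel; activity (Z'LYTE, Adapta) plus binding formats. ATP: Km app for CSF1R Z'LYTE; 10 for CAMK1 Adapta. Readout = % per kinase.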

T1 sequence (P54756 25-1037): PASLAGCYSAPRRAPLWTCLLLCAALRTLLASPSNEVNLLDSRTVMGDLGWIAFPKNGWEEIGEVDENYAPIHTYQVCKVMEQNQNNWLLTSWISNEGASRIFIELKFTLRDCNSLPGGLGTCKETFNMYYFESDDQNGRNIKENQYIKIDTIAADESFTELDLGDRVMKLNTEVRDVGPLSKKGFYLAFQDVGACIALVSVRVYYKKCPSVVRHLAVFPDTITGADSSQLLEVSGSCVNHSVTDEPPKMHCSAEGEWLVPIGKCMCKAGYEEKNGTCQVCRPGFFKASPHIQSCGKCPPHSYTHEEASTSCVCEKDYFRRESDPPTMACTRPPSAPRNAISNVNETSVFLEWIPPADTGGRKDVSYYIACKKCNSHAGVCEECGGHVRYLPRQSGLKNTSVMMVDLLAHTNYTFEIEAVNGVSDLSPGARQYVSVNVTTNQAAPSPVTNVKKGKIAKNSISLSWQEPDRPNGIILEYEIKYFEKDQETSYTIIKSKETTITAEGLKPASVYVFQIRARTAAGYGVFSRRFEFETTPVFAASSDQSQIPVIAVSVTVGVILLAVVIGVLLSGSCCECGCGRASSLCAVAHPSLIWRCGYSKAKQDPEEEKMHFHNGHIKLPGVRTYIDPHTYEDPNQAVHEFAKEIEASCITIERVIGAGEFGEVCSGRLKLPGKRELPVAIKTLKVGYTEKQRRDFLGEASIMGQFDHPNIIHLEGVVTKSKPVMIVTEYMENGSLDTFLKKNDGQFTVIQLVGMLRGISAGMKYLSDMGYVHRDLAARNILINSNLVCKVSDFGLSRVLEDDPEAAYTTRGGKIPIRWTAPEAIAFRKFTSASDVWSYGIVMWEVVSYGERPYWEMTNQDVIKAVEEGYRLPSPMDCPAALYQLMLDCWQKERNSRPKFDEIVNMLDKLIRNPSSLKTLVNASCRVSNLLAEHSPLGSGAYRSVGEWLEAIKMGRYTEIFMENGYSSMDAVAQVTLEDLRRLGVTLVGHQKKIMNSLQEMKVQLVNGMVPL

With CN(C(=O)CN1CCOCC1)c1ccc2sc3c(-c4cccc5c(=O)cc(N6CC7CCC(C6)O7)oc45)cccc3c2c1 [NU5455] the inhibition at 1 µM was 5.1%.
